Values of other authors as cited in patent publication US20210401846A1, “MEDICAMENT, COMPOUND, COMPOSITION AND METHOD FOR TREATING HERPES” (priority 2020, published 2021).
Read-outs that look alike come from different tables or passages of the source. One block for each compound: values may come before it.

Tests used:
[1] = not given; remark: listed apart in the source
aldehyde oxidase = molecular target: T1, aldehyde oxidase (Homo sapiens, UniProt Q06278); conditions: in vitro inhibitors of aldehyde oxidase
T1 construct: host or cells: endogenous enzyme in vivo
T1 sequence (Q06278 1-1338): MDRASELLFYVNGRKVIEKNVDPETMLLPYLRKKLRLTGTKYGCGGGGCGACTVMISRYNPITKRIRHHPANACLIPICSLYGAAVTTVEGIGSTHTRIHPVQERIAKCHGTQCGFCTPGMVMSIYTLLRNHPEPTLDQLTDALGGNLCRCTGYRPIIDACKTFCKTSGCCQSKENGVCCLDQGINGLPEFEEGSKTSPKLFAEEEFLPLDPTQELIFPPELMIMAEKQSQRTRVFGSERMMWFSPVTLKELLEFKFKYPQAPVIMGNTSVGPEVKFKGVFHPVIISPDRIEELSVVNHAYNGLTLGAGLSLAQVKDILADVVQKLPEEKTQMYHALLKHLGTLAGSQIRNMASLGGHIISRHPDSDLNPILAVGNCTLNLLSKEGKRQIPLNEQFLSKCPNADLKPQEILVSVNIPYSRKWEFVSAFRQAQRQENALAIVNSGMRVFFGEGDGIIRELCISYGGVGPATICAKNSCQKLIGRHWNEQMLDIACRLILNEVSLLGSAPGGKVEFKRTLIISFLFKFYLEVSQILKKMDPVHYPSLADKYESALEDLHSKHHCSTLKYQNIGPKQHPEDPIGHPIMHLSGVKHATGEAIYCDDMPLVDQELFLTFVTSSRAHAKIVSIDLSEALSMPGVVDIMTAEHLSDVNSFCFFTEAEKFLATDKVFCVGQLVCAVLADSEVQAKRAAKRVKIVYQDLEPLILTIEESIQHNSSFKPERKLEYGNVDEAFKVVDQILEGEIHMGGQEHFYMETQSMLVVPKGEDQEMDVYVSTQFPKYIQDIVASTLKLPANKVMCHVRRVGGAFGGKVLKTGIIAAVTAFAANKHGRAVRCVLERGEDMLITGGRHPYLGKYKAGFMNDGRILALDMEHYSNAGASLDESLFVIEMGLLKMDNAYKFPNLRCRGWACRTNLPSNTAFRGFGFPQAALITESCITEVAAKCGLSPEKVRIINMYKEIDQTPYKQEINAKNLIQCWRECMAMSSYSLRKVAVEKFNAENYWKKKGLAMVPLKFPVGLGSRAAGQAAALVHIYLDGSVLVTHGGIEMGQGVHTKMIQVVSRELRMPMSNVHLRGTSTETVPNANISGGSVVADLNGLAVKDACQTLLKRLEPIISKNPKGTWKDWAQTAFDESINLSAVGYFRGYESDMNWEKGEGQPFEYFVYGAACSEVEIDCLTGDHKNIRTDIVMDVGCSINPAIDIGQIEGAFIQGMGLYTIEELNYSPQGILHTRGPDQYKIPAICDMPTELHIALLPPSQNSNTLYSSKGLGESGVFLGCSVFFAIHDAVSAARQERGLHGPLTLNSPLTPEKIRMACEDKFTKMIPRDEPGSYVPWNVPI

cytochrome P450 = conditions: human liver microsomes
[2] = during therapy
[3] = for half-life: 17 patients with herpes zoster
[4] = not given; remark: listed apart in the source
[5] = not given; remark: listed apart in the source
[6] = after single oral 500 mg radiolabeled famciclovir
[7] = single oral 500 mg radiolabeled famciclovir, 3 healthy male volunteers
[8] = oral administration of radiolabeled valacyclovir
[9] = oral single dose 500 mg famciclovir, 7 patients with herpes zoster

SMILES: CN/C(=N/CCSCc1nc[nH]c1C)NC#N [Cimetidine]
effects on the formation of penciclovir in vivo (aldehyde oxidase): did not show relevant effects

SMILES: CC(=O)OCC(CCn1cnc2cnc(N)nc21)COC(C)=O [Famciclovir, famciclovir]
role of cytochrome P450 in famciclovir metabolism (cytochrome P450): does not play an important role
famciclovir detected in plasma or urine (oral administration): Little or no
radiolabeled dose collected in urine in the first 6 hours (single oral 500 mg radiolabeled famciclovir): Approximately 60%
administered radioactivity recovered in feces over 72 hours [7]: 27%
administered radioactivity recovered in urine over 72 hours [7]: 73%
clinically apparent liver injury [2]: has not been associated with instances of clinically apparent liver injury
serum ALT elevations [2]: low rate of mild-to-moderate serum ALT elevations

SMILES: CC(C)[C@H](N)C(=O)OCCOCn1cnc2c(=O)[nH]c(N)nc21 [Valacyclovir]
Half-life elimination ([1]; normal renal function, adults): ~0.5 h
Bioavailability ([1]; once converted to acyclovir): ~55%
label eliminated in the feces (nonabsorbed drug) [1, 8]: 46%
radiolabel eliminated in the urine [1, 8]: 47%
Absorption ([1]; valacyclovir): Rapid
clinically apparent liver injury [2]: rare instances mild, clinically apparent liver injury

SMILES: CC(CN1c2ccccc2Sc2ccccc21)N(C)C (centres unmarked) [promethazine]
effects on the formation of penciclovir in vivo (aldehyde oxidase): did not show relevant effects

The remaining lines, values ahead:

share of the radioactivity excreted in the urine [6]: 7%
inactive metabolite, % of the dose in the urine (oral administration of famciclovir): 5%
SMILES: Nc1ncc2ncn(CCC(CO)CO)c2n1 [6-deoxy penciclovir]

Excretion: urine, primarily as acyclovir ([1]; in vivo): 89%
SMILES: Nc1nc2c(ncn2COCCO)c(=O)[nH]1 [Acyclovir]

half-life ([3]; repeated doses): 2.7 ± 1.0 h
half-life ([3]; single dose): 2.8 ± 1.0 h
AUC of penciclovir greater in patients with herpes zoster as compared to healthy volunteers ([3]; human, in vivo): approximately 35%
AUC (mean±SD) [3, 9]: 12100 ± 1700 ng·h/mL
Cmax [3, 9]: 4000 ± 700 ng/mL
tmax [3, 9]: 0.7 ± 0.2 h
blood/plasma ratio [4]: approximately 1
bound to plasma proteins ([4]; concentration range 0.1 to 20 mcg/mL): < 20%
Cmax decrease ([5]; capsule formulation of famciclovir administered with food (approx. 910 Kcal, 26% fat)): approximately 50%
decrease in Cmax ([5]; famciclovir 2 hours after a meal vs 2 hours before a meal): 18%
dose excreted in the first 6 hours (5 mg/kg radiolabeled penciclovir, 1-hour infusion): 83%
administered radioactivity recovered in urine over 24 hours (5 mg/kg radiolabeled penciclovir, 1-hour infusion, 3 healthy male volunteers): Approximately 94%
accumulation of penciclovir (500 mg famciclovir three times daily for 7 days): no accumulation
share of the radioactivity excreted in the urine (after 5 mg/kg radiolabeled penciclovir infusion): 91%
share of the radioactivity excreted in the urine [6]: 82%
Penciclovir concentrations vs dose (famciclovir 125 mg to 1000 mg single dose): increased in proportion to dose
renal clearance as share of total plasma clearance (intravenous penciclovir): 74.5±8.8%
SMILES: Nc1nc2c(ncn2CCC(CO)CO)c(=O)[nH]1 [penciclovir]
